Source: patent publication US12544426B2, “Combination therapy with CD13-targeted chimeric proteins or chimeric protein complexes” (Orionis Biosciences, Inc., priority 2019, dated 2026)

B1: IFN-γ: human IFN-γ used on HUVECs, 200 ng/ml (protein)
chain: QDPYVKEAENLKKYFNAGHSDVADNGTLFLGILKNWKEESDRKIMQSQIVSFYFKLFKNFKDDQSIQKSVETIKEDMNVKFFNSNKKKRDDFEKLTNYSVTDLNVQRKAIHELIQVMAELSPAAKTGKRKRSQMLFRGRRASQ

Columns and labels:
[1] = tested on: B16BI6 tumor; experiment: B16BI6 melanoma model, tumor growth; type: in vivo, mouse; settings: Example 5, alone or combined with birinapant
From the text: FIG. 2A is a graph showing the change in B16BI6 tumor size in B16 mice treated with PBS, CD8-targeted chimeric protein (CD8-Actaferon) alone, BcII10 targeted mutated murine TNF (Y114L) alone, or CD8-targeted chimeric protein (CD8-Actaferon) and BcII10 targeted mutated murine TNF (Y114L). FIG. 2B is a graph showing the change in B16BI6 tumor size in B16 mice treated with PBS, CD8-targeted chimeric protein (CD8-Actaferon) alone, CD13 targeted mutated murine TNF (Y114L) alone, or CD8-targeted chimeric protein (CD8-Actaferon) and CD13 targeted mutated murine TNF (Y114L). […] Tumor growth is shown as mean TSI+SEM (n=6 per group). The line under the graph represents the treatment period. […] Error bars are SEM. ***, p<0.001 by one-way ANOVA with Bonferroni's multiple comparison test. […]
FIG. 7A: Toxicity of wt sc mTNF and mutant Y86F after injection (T) in naïve C56BU6 mice. […] FIG. 7B: Plasma IL-6 concentrations measured via ELISA. […]
FIG. 8A and 8B: B16BI6 tumor growth after daily p.1. treatment with 7 μg mTNF, 30 μg hTNF alone or in combination with 10000 IU mIFN-γ in wt C57BL/6 mice (a) or homozygous Flk1 dnIFN-γR transgenic mice. […] FIG. 8C: IL-8 concentration in HUVEC supernatant after 24 h stimulation with the indicated concentration of sc hTNF mutant Y87F (Y87F), hCD13-AFR or wt hTNF, alone or in combination with 200 ng/ml hIFN-γ, measured via ELISA. […]

[2] = tested on: HUVEC; experiment: IL-8 secretion by HUVECs (ELISA of supernatant); type: cell-based, human; settings: 24 h stimulation, 200 ng/ml hIFN-γ where used
Experimental: FIG. 8A and 8B: B16BI6 tumor growth after daily p.1. treatment with 7 μg mTNF, 30 μg hTNF alone or in combination with 10000 IU mIFN-γ in wt C57BL/6 mice (a) or homozygous Flk1 dnIFN-γR transgenic mice. The line under the graph represents the treatment period. Tumor growth is depicted as mean TSI, error bars are SEM (n=5 per group). FIG. 8C: IL-8 concentration in HUVEC supernatant after 24 h stimulation with the indicated concentration of sc hTNF mutant Y87F (Y87F), hCD13-AFR or wt hTNF, alone or in combination with 200 ng/ml hIFN-γ, measured via ELISA. Error bars are SEM. ns, non-significant; p<0.01; ***, p<0.001 by one-way ANOVA with Bonferroni's multiple comparison test. FIG. 8D: Schematic representation of AFN-II, consisting of a VHH fused via a 20×GGS linker to an engineered IFN-γ (e-IFN-γ) variant and N-terminal affinity tag. FIG. 8E: Viability of B16BI6 parental or mCD20-expressing cells after 72 h stimulation with wt mIFN-γ or de18 mutant fused to a BcII10 or mCD20 VHH, in the presence of 60 ng/ml mTNF. Cell viability was measured via an ATP luminescence assay. Each point is the mean of three replicates and error bars are SEM.
It was also tested whether IFN-γ could sensitize HUVECs to TNF, using either wtTNF or hCD13-AFR.

| Molecule | Tumor growth (FIG. 5A) [1] | IL-8 secretion by HUVECs [2] |
| --- | --- | --- |
| CC[C@H](NC(=O)[C@H](C)NC)C(=O)N1C[C@@H](O)C[C@H]1Cc1c(-c2[nH]c3cc(F)ccc3c2C[C@@H]2C[C@H](O)CN2C(=O)[C@H](CC)NC(=O)[C@H](C)NC)[nH]c2cc(F)ccc12 [birinapant] | very little effect on tumor growth |  |
| B1 |  | no effect on IL-8 secretion |
